Legend:
Carbonic anhydrase 2 = Carbonic anhydrase 2 (Homo sapiens, UniProt P00918); assay: Binding affinity to human carbonic anhydrase 2 by surface plasmon resonance spectrometry
[1] = Dissociation constant, pKa of the compound; type: physicochemical

O=C1NC(=O)C(c2ccccc2)N1 (stereo not given)
Kd (Carbonic anhydrase 2): > 2000 µM

O=C1NC(=O)C(Cc2ccccc2)N1 (stereo not given)
Kd (Carbonic anhydrase 2): > 2000 µM

COc1ccc(/C=C2\SC(=O)NC2=O)c(OC)c1
Kd (Carbonic anhydrase 2): > 2000 µM

O=C1NC(=O)/C(=C/c2ccccc2)N1
Kd (Carbonic anhydrase 2): > 2000 µM

COc1ccc(/C=C2\NC(=O)NC2=O)c(OC)c1
Kd (Carbonic anhydrase 2): > 2000 µM

COc1ccc(/C=C2\NC(=S)NC2=O)c(OC)c1
Kd (Carbonic anhydrase 2): > 2000 µM

COc1ccc(CC2NC(=O)NC2=O)c(OC)c1 (stereo not given)
Kd (Carbonic anhydrase 2): > 2000 µM

CC1(C)OC(=O)NC1=O [DIMETHADIONE]
Kd (Carbonic anhydrase 2): > 2000 µM

O=C1NC(=O)C(c2ccccc2)O1 (stereo not given) [PEMOLINE DIONE]
pKa [1]: 5.5

CN1C(=O)OC(C)(C)C1=O [TRIMETHADIONE]
Kd (Carbonic anhydrase 2): > 2000 µM
